Data: US20260345596A1, “TREATMENT OF LOCALLY ADVANCED OR METASTATIC UROTHELIAL CARCINOMA WITH ERDAFINITIB” (priority 2023, published 2026)

Key:
[1] = Solubility
[2] = tested on: cell lines expressing FGFR genetic alterations; assay: Cell viability of cell lines expressing FGFR genetic alterations; assay type: cell-based; details: cell lines with FGFR genetic alterations
[3] = tested on: rats; assay: 3-month repeat-dose toxicity study, female reproductive organs; details: exposure less than human AUC at maximum recommended dose
[4] = clinical; details: human, in vivo, po
[5] = tested on: bacteria; assay: Bacterial reverse mutation (Ames) assay
[6] = Excretion after a single oral dose of radiolabeled erdafitinib; details: for dose excreted: human, in vivo, po

Compound: COc1cc(OC)cc(N(CCNC(C)C)c2ccc3ncc(-c4cnn(C)c4)nc3c2)c1 [Erdafitinib, N-(3,5-dimethoxyphenyl)-N′-(1-methylethyl)-N-[3-(1-methyl-1H-pyrazol-4-yl)quinoxalin-6-yl]ethane-1,2-diamine]
- Solubility in organic solvents ([1]; organic solvents): practically insoluble, or insoluble to freely soluble in organic solvents
- Solubility across the pH range of 1 to 7.4 ([1]; pH 1 to 7.4): adequate solubility across the pH range of 1 to 7.4
- Solubility in aqueous media ([1]; wide range of pH values): slightly soluble to practically insoluble, or insoluble in aqueous media over a wide range of pH values
- Cell viability [2]: decreased cell viability in cell lines expressing FGFR genetic alterations, including point mutations, amplifications, and fusions
- Effects on female reproductive organs [3]: showed effects on female reproductive organs (necrosis of the ovarian corpora lutea)
- CL/F [4]: 6.03 mL/min
- Vd/F [4]: 29 L
- Dose proportionality of exposure (Cmax and AUC) (0.5 to 12 mg, single and repeat once daily dosing): increased proportionally across the dose range of 0.5 to 12 mg
- Effect of food on exposure (high-fat and high-calorie meal): No clinically meaningful differences in erdafitinib exposure
- Time to steady state (once daily dosing): 2 weeks
- Effect of age, sex, race, body weight, hepatic or renal impairment on exposure (specific populations): No clinically meaningful effects on erdafitinib exposure were observed based on age (21-92 years), sex, race (White, Hispanic or Asian), body weight (36-166 kg), mild (Child-Pugh A) or moderate (Child-Pugh B) hepatic impairment, or mild to moderate renal impairment (eGFR 30 to 89 mL/min/1.73 m^2)
- Mutagenicity (Ames) [5]: not mutagenic
- Dose recovered in feces [6]: approximately 69%
- Dose recovered in urine [6]: 19%
- dose excreted ([6]; Dose recovered in feces as unchanged): 19%
- dose excreted ([6]; Dose recovered in urine as unchanged): 13%
